Experimental data: patent publication US7575882B2, “Compositions and methods for identifying modulators of TRPV2” (Janssen Pharmaceutica N. V., priority 2005, dated 2009)

How the values were obtained:
rat TRPV2 = molecular target: T1, rat TRPV2 (Rattus norvegicus, UniProt Q9WUD2, A713V/L151P/T158I); test: Whole-cell patch clamp, HEK293 cells stably expressing rat TRPV2; assay type: cell-based; details: 10 μM ruthenium red; 100 μM Δ^9-THC
T1 construct: A cDNA fragment encoding the full-length rat TRPV2 was subcloned into pCI-neo; expressed in transfected cells
T1 sequence (Q9WUD2 1-761 L151P/T158I/A713V): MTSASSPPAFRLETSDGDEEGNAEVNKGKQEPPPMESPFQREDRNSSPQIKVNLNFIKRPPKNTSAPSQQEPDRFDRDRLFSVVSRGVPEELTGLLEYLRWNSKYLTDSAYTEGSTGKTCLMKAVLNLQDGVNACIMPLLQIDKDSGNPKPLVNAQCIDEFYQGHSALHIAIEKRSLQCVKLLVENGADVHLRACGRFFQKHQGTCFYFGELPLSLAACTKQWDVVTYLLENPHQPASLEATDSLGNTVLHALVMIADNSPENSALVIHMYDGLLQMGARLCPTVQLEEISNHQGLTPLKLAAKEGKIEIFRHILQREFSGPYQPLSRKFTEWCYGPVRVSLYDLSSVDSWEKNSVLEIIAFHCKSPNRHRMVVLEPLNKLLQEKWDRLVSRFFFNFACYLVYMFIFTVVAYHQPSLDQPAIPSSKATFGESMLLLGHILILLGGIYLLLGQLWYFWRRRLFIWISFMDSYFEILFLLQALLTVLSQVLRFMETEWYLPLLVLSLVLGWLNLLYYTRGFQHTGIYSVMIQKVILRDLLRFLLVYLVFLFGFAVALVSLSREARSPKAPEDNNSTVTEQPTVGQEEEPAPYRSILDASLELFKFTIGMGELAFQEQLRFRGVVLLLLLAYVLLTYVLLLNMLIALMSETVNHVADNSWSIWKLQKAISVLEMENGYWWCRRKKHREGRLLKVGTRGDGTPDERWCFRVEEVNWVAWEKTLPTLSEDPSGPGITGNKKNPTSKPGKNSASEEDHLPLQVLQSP
Description: To further confirm the Δ^9-THC effect on TRPV2, whole-cell patch clamp studies were performed. The extracellular solution contained (in mM): NaCl, 132; CaCl, 1.8; KCl, 5.4; MgCl2, 0.8; HEPES, 10; glucose, 10; pH=7.4. The intracellular solution used to fill recording pipettes contained (in mM): CsCl, 145; EGTA, 5; HEPES, 10; glucose, 5; pH=7.4. Recordings were performed using the conventional whole-cell patch clamp technique, 2-3 days after transient transfection of human TRPV2 into HEK293 cell or 1-2 days after plating HEK293 cells stably expressing rat TRPV2 onto glass coverslips. Currents were amplified by a patch clamp amplifier and filtered at 2 kHz (Axopatch 200B), sampled at 10 kHz using Digidata 1322A and acquired and analyzed with pClamp 9.0 (all instruments from Molecular Devices, CA). A 600 ms voltage ramp was given once every five seconds from −100 mV to +60 mV. The holding potential between voltage ramps was −100 mV. Extracellular solutions were applied to the cell at 0.5 ml/min via a gravity-fed perfusion system. All experiments were performed at 22° C.

human TRPV2 = molecular target: T2, human TRPV2 (Homo sapiens, UniProt Q9Y5S1); test: Whole-cell patch clamp, HEK293 cells transiently transfected with human TRPV2; assay type: cell-based; details: 10 μM ruthenium red; 100 μM Δ^9-THC
T2 construct: A cDNA fragment encoding the full-length human TRPV2 was subcloned into pCI-neo or pcDNA3; expressed in transfected cells; host or cells: HEK293, transient, pCI-neo or pcDNA3
T2 sequence (Q9Y5S1 1-764): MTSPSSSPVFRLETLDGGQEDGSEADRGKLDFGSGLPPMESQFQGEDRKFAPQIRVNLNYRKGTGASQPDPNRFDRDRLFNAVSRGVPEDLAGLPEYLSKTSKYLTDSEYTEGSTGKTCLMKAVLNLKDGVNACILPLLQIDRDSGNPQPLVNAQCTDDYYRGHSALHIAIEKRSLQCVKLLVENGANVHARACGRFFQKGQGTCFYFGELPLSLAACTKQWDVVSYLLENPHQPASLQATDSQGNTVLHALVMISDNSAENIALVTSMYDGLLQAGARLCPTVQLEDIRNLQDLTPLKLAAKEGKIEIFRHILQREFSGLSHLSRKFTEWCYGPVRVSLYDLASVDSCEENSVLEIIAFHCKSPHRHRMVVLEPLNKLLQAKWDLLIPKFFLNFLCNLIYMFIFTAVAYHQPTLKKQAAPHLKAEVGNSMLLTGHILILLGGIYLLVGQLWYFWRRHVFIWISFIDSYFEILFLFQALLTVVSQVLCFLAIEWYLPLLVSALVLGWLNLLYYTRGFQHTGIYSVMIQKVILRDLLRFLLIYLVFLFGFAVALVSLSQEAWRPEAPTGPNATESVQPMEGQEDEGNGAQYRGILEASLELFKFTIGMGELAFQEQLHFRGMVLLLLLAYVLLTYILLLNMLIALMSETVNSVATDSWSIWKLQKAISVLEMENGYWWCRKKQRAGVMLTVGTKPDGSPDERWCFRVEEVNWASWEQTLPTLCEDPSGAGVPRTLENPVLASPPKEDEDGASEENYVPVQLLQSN
Description: A cDNA fragment encoding the full-length human TRPV2 was subcloned into pCI-neo or pcDNA3 mammalian expression vectors. The expression constructs were then transfected into HEK293 cells with FuGene6 transfection reagent (Roche, Indianapolis, Ind.) according to vendor's protocol. TRPV2-expressing HEK293 cells were cultured in DMEM supplemented with 10% fetal bovine serum, 100 units/ml penicillin, and 100 μg/ml streptomycin for 48-72 hr and either evaluated for transient expression and/or activity, or dosed with 400 μg/ml G418 to select for stably-transfected TRPV2-expressing cell clones. Cells were maintained at 37° C. and in 5% CO2.
To further confirm the Δ^9-THC effect on TRPV2, whole-cell patch clamp studies were performed. The extracellular solution contained (in mM): NaCl, 132; CaCl, 1.8; KCl, 5.4; MgCl2, 0.8; HEPES, 10; glucose, 10; pH=7.4. The intracellular solution used to fill recording pipettes contained (in mM): CsCl, 145; EGTA, 5; HEPES, 10; glucose, 5; pH=7.4. […] Currents were amplified by a patch clamp amplifier and filtered at 2 kHz (Axopatch 200B), sampled at 10 kHz using Digidata 1322A and acquired and analyzed with pClamp 9.0 (all instruments from Molecular Devices, CA). […]

N.N.N.N.N.N.N.N.N.N.N.N.N.N.[Cl-].[Cl-].[Cl-].[Cl-].[Cl-].[Cl-].[O-2].[O-2].[Ru+3].[Ru+3].[Ru+4] [ruthenium red]
inhibition of Δ^9-THC-activated currents, rat TRPV2 (rat TRPV2): significantly inhibited
inhibition of Δ^9-THC-activated currents, human TRPV2 (human TRPV2): significantly inhibited
